From ChEMBL document CHEMBL1201862, “PubChem BioAssay data set” (2004)
Active and inactive are the calls of the source. Starred links: 1 amine or outer side, 2 acyl side, 3 side chain; linkers in the order of their positions; H or OH if unused. Positions of bridges follow the written chain, without caps; N, C: chain ends. Non-standard residues stand in square brackets, D forms with d. Residues, ends and D or L forms follow the SMILES beside them. Chains are numbered I, II in the order given. Actinocin(1to9) = Cc1c2oc3c(C)ccc(C(=O)[*:2])c3nc-2c(C(=O)[*:1])c(N)c1=O; aThr = C[C@H](O)[C@H](N)C(=O)O; NMeV = CN[C@H](C(=O)O)C(C)C; Sar = CNCC(=O)O

Assays:
Cytochrome P450 1A2 = target: T1, Cytochrome P450 1A2 (Homo sapiens, UniProt P05177);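 also: PubChem cytochrome P450 panel assay, CYP1A2 panel member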
T1 sequence (P05177 whole entry): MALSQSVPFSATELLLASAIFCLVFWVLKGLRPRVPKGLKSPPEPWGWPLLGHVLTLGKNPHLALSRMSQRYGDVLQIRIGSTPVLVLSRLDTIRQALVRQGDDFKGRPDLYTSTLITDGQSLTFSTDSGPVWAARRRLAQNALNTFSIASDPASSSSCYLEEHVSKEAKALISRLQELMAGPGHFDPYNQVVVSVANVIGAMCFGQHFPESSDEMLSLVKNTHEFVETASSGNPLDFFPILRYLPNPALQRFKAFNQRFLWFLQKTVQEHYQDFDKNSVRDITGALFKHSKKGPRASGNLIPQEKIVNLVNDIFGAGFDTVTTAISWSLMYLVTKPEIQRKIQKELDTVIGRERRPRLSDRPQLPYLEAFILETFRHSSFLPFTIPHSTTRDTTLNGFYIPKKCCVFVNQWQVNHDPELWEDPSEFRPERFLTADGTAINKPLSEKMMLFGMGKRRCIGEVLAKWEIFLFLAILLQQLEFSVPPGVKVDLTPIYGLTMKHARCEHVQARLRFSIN

[1] = blockers of HIV-1 envelope-mediated cell-cell fusion – cherry-pick, dose response (AID 652057); assay type: functional, cell-based
[2] = Luminescence Cell-Based Dose Response HTS to Identify Activators of Luciferase Translation or Activity in H4 […] Cells. [Related pubchem assays: 1829 (Project Summary), 1814 (Primary HTS)]; assay type: functional
[3] = Luminescence Cell-Based Dose Confirmation HTS to Identify Activators of 5'UTR Stem-Loop Driven Alpha-Synuclein mRNA Translation in H4 Neuroglioblastoma Cells. [Related pubchem assays: 1829 (Project Summary), 1814 (Primary HTS)]; assay type: functional
H9c2 = test: cells; assay type: functional, cell-based; settings: Rattus norvegicus, H9c2, Myocardium;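 also: confirmatory concentration-response retest of ultra-high-throughput screening hits for modulation of myocardial damage; cell death induced by hydrogen peroxide oxidative stress; compound pretreatment for 60 min then peroxide exposure for 2 h; potency is for protecting the cells against peroxide damage rather than for killing them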
[4] = target: T2, RNA-binding protein pos-1 (Caenorhabditis elegans, UniProt G5EF15); test: disruptors of C. elegans POS-1 RNA interaction – biochemical, fluorescence polarization, dose response (AID 1964);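 also: purified POS-1 fused to maltose binding protein made in E. coli; potency of compounds blocking POS-1 binding to fluorescent RNA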
T2 sequence (G5EF15 whole entry): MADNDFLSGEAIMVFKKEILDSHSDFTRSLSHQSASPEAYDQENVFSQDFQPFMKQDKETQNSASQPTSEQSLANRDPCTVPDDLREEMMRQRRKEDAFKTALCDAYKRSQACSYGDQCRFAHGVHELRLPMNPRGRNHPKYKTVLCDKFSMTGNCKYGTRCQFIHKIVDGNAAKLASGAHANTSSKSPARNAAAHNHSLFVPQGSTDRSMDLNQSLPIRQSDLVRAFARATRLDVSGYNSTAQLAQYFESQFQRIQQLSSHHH

[5] = target: T3, Zinc finger protein mex-5 (Caenorhabditis elegans, UniProt Q9XUB2); test: potency of MEX-5 RNA-binding blockers – biochemical, C. elegans, fluorescence polarization, dose response (AID 1960)
T3 sequence (Q9XUB2 whole entry): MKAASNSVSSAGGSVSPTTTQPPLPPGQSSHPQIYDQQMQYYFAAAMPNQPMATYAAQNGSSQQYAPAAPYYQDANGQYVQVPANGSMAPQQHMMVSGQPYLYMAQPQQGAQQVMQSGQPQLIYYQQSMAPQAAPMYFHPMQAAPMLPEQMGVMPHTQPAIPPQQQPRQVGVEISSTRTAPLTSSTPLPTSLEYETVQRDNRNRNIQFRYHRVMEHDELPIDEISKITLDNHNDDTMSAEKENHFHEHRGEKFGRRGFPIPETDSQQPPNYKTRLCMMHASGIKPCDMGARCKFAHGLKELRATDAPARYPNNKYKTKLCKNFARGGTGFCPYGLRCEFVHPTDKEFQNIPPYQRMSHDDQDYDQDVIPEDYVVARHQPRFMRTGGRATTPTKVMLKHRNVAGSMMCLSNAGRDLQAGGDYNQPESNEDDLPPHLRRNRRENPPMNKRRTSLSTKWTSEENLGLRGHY

P388/ADR = test: cells; assay type: functional; settings: Mus musculus, P388/ADR
P388 = test: cells; assay type: functional; settings: Mus musculus, P388
SN12K1 = test: cells; assay type: functional; settings: Homo sapiens, SN12K1
[6] = microbe, parasite or virus in culture; assay type: functional; settings: Mycobacterium tuberculosis
[7] = viability of uninfected HEp-2 cells – cell-based, HTS, cytotoxicity control for RSV inhibitor project, dose response (AID 2410); assay type: functional; settings: human respiratory syncytial virus
INS1 = test: INS-1E survival protection against cytokine death – cell-based, luminescence, retest, dose response (AID 449756); assay type: functional; settings: Rattus norvegicus;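 also: cell death triggered by IL-1 beta plus TNF-alpha plus IFN-gamma mixture; protective hits raise ATP signal compared with cytokine alone wells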
[8] = HIV-1 AD8 envelope cell-cell fusion blockers – cherry-pick, dose response (AID 652062); assay type: functional, cell-based;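 also: luciferase signal from cell-cell fusion driven by HIV-1 clade B AD8 Env; potency is for inhibitors of fusion seen as a drop in luminescence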
[9] = test system: Streptococcus sp. 'group A'; test: Streptococcus pyogenes SK(-)GAS viability under kanamycin – luminescence, BacTiterGlo, confirmation, counter-screen for streptokinase expression inhibitor project, dose response (AID 1900); assay type: functional, organism-based
Streptococcus = test: GAS UMAA2166 growth inhibition – luminescence, BacTiterGlo, counter-screen for streptokinase expression inhibitor project, dose response (AID 1915); assay type: functional, organism-based;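 also: potency for reduction of bacterial viability or growth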
Streptokinase A = target: T4, Streptokinase A (Streptococcus pyogenes serotype M1, UniProt P10520); test: viability-normalized secreted streptokinase activity reduction – plasminogen activation absorbance, OD405, dose response (AID 1914); assay type: functional, Streptococcus pyogenes M1 GAS;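 also: secreted streptokinase activity via plasminogen activation per viability signal from cell pellet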
T4 sequence (P10520 whole entry): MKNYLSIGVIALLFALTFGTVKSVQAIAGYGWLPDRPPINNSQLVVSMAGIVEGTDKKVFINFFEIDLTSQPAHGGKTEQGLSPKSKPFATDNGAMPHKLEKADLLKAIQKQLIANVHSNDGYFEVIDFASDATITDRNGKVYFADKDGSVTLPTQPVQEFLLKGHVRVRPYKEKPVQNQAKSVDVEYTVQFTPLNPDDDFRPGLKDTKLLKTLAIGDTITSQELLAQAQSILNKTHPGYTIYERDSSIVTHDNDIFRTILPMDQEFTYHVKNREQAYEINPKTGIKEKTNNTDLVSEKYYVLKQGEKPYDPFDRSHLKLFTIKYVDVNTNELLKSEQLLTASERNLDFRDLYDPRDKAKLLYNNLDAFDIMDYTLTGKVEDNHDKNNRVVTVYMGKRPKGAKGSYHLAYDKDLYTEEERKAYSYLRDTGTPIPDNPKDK

SMILES: Clc1ccc2c(c1)C1=C(C(c3ccncc3)O2)C(c2ccc(Br)cc2)n2ncnc2N1 (centres undefined)
- AC50 (Cytochrome P450 1A2): 25.1 µM (inconclusive)
- AC50 [1]: 11.2 µM (active)

SMILES: CC(=O)C(=NNc1ccc2c(c1)OCO2)C(C)=O
- EC50 [2]: 27.8 µM (active)
- EC50 [3]: 13.9 µM (active)

SMILES: Cc1cc(NC(=O)C2CCCCC2)nc2c1c(=O)oc1ccccc12
- IC50 (H9c2): 7.59 µM (active)

SMILES: Cc1ccc(S(=O)(=O)C(C#N)c2nc3ccccc3nc2N2CCC(C)CC2)cc1 (centres undefined)
- EC50 [4]: > 300 µM (inconclusive)
- EC50 [5]: 24.6 µM (active)

SMILES: C=CC1(C)CC(=O)C2(O)C(C)(O1)C(OC(C)=O)C(O)C1C(C)(C)CCC(O)C12C (centres undefined)
- GI50 (P388/ADR): 43.9 µM (inactive)
- GI50 (P388): 56.4 µM (inactive)
- GI50 (SN12K1): 65.3 µM (inactive)

SMILES: CCC(=O)OC1(C)C(=O)C=C2C=C(CCCC(=O)OC)OC=C2C1=O (centres undefined)
- EC50 [4]: 27.8 µM (active)
- EC50 [5]: 22.8 µM (active)

SMILES: COc1ccc(C2C=C(c3ccc(Br)s3)Nc3ncnn32)cc1OC (centres undefined)
- EC50 [4]: 7.82 µM (active)
- EC50 [5]: 6.36 µM (inconclusive)

SMILES: COc1ccc(-n2cc(CNCCc3cscn3)c(-c3ccccc3Cl)n2)cc1
- CC50 [6]: > 40 µM (active)

SMILES: COc1ccc(N2CCN(c3ccnc4cc(Cl)ccc34)CC2)cc1
- CC50 [6]: > 40 µM (active)

SMILES: Nc1[nH]nc(C2CC2)c1N=Nc1ccc(Cl)cc1
- CC50 [6]: > 40 µM (active)

SMILES: COc1ccc(NC(=O)c2oc3ccc(S(=O)(=O)N4CCOCC4)cc3c2C)cc1
- IC50 (H9c2): > 79 µM (inactive)

SMILES: CCC(=O)OC1(C)C(=O)C=C2C=C(CCCCNC(=O)OC(C)(C)C)OC=C2C1=O (centres undefined)
- EC50 [4]: 33.5 µM (active)
- EC50 [5]: 28.4 µM (active)

SMILES: COC(=O)c1ccccc1-n1c(CCC(=O)O)ccc1-c1ccccc1
- EC50 [4]: > 300 µM (not active)
- EC50 [5]: > 300 µM (not active)

SMILES: Cc1ncc2c(n1)-c1cc(F)ccc1SC2
- CC50 [7]: 40.5 µM (active)

SMILES: O=C1c2ccccc2C(=O)N1CCCc1nc(-c2ccncc2)no1
- EC50 [4]: > 300 µM (not active)
- EC50 [5]: > 300 µM (not active)

SMILES: CCn1c(C)cc(/C=C2\C(=O)NC(=O)N(c3ccccc3C)C2=O)c1C
- EC50 [4]: > 300 µM (not active)
- EC50 [5]: > 300 µM (not active)

SMILES: Cc1cc(NC(=O)c2cccs2)cc(-c2nc3ncccc3o2)c1O
- IC50 (H9c2): > 79 µM (inactive)

SMILES: CCOC(=O)c1c(CN2CCN(Cc3ccccc3)CC2)n(C)c2cc(Br)c(OC)cc12
- CC50 [6]: > 40 µM (active)

SMILES: COc1ccccc1NCC(=O)N1CCN(S(=O)(=O)c2ccccc2)CC1
- AC50 (INS1): > 260 µM (inactive)

SMILES: CSc1ccccc1OCc1cc(C(=O)N2CCC(Oc3cccnc3)CC2)no1
- CC50 [6]: > 40 µM (active)

SMILES: COc1ccc(CCNC(=O)c2cc3sc(Cl)cc3n2C)cc1OC
- CC50 [7]: 27.5 µM (active)

SMILES: Cc1ccc(S(=O)(=O)N2CCOCC2)cc1C(=O)Nc1ccc(S(=O)(=O)Nc2nccs2)cc1
- EC50 [4]: > 300 µM (not active)
- EC50 [5]: > 300 µM (not active)

SMILES: CCCCNC(=O)c1cccc(S(=O)(=O)N2CC3(C)CC2CC(C)(C)C3)c1 (centres undefined)
- CC50 [7]: 26.5 µM (active)

SMILES: O=[N+]([O-])c1ccc2c(c1)nc(O)c1ccccc12
- IC50 (H9c2): > 79 µM (inactive)

SMILES: Cn1c(=O)c2nc(NN=Cc3cccc(Br)c3)[nH]c2n(C)c1=O
- IC50 (H9c2): > 79 µM (inactive)

SMILES: O=C(O)CCC(NC(=O)c1ccc(Nc2nc3cc(C(F)(F)F)ccc3nc2-c2ccccc2)cc1)C(=O)O (centres undefined)
- GI50 (P388/ADR): 38.5 µM (inactive)
- GI50 (P388): 26.5 µM (inactive)
- GI50 (SN12K1): 48.2 µM (inactive)

SMILES: CCOC(=O)c1c(C)c2c(n1C)CCc1c[nH]nc1-2
- GI50 (P388/ADR): > 31.6 µM (inactive)
- GI50 (P388): > 100 µM (inactive)
- GI50 (SN12K1): > 100 µM (inactive)

SMILES: COc1cc2c(cc1OC)C(C(c1ccccc1)c1ccccc1)N(C)CC2 (centres undefined)
- GI50 (P388/ADR): 41.6 µM (inactive)
- GI50 (P388): 24.5 µM (inactive)
- GI50 (SN12K1): 32.6 µM (inactive)

SMILES: C[C@H]1CN([C@@H](C)CO)C(=O)c2ccccc2-c2ccccc2CO[C@@H]1CN(C)C(=O)Nc1cccc(C(F)(F)F)c1
- AC50 [1]: < 0.26 µM (active)
- AC50 [8]: 19 µM (active)

SMILES: O=C1C=C2SC3C[C@@]24CC1[N+]1=c2c4c(c(O)c4c2=C(C=N4)CC1)N3
- GI50 (P388/ADR): 6.35 µM (inactive)
- GI50 (P388): 1.83 µM (inactive)
- GI50 (SN12K1): 1.94 µM (inactive)

SMILES: CCOC(=O)c1c(N)sc(-c2ccccc2)c1C
- CC50 [7]: 28.5 µM (active)

SMILES: Cc1c2oc3c(C)ccc(C(=O)N[C@@H]4C(=O)N[C@H](C(C)C)C(=O)N5CCC[C@H]5C(=O)N(C)CC(=O)N(C)[C@@H](C(C)C)C(=O)O[C@H]4C)c3nc-2c(C(=O)N[C@@H]2C(=O)N[C@H](C(C)C)C(=O)N3CCC[C@H]3C(=O)N(C)CC(=O)N(C)[C@@H](C(C)C)C(=O)O[C@H]2C)c(N)c1=O (I: [aThr][dV]P[Sar][NMeV] / II: [aThr][dV]P[Sar][NMeV]; ester I:1-I:C, II:1-II:C; linker I:N-II:N via Actinocin(1to9))
- GI50 (P388/ADR): 0.00442 µM (active)
- GI50 (P388): 0.00025 µM (active)
- GI50 (SN12K1): 0.000337 µM (active)

SMILES: CC12CCC(CC1)C(C)(C)O2 [EUCALYPTOL]
- EC50 [9]: > 150 µM (not active)
- GI50 (P388/ADR): 8.17 µM (inactive)
- EC50 (Streptococcus): > 150 µM (not active)
- GI50 (P388): 9.1 µM (inactive)
- EC50 (Streptokinase A): > 150 µM (not active)
- GI50 (SN12K1): 21.9 µM (inactive)

SMILES: NC1=NC(=O)/C(=C2\CCNC(=O)c3[nH]c(Br)cc32)N1 [HYMENIALDISINE]
- GI50 (P388/ADR): 7.28 µM (inactive)
- GI50 (P388): 3.97 µM (inactive)
- GI50 (SN12K1): 12.3 µM (inactive)
